# Target: T1, recombinant human NK3 receptor (Homo sapiens, UniProt P29371)
# T1 construct: expressed in transfected cells; host or cells: HEK293 cells, transient expression; membranes
# T1 sequence (P29371 1-465): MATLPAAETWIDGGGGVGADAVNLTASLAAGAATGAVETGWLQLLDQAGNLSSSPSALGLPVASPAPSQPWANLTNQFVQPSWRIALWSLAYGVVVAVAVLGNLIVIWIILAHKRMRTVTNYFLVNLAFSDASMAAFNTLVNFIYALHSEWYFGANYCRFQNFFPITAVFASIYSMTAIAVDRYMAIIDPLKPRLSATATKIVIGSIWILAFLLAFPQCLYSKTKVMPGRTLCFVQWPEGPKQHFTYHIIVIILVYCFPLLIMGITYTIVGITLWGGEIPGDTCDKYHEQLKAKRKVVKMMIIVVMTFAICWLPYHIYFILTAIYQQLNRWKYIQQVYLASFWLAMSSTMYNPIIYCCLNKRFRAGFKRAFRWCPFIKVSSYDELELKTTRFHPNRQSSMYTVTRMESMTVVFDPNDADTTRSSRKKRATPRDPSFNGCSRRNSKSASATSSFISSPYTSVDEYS
# Assay: [3H]SR142801 competition binding assay
# Details: not given
row,SMILES,Ki
1,"CN(C(=O)Oc1ccc(F)cc1)[C@@H]1CN(C(=O)C2CCN(C3CCS(=O)(=O)CC3)CC2)C[C@H]1c1ccc(Cl)cc1 [Example 109, {(3S,4R)-4-(4-Chloro-phenyl)-1-[1-(1,1-dioxo-hexahydro-1λ^6-thiopyran-4-yl)-piperidine-4-carbonyl]-pyrrolidin-3-yl}-methyl-carbamic acid 4-fluoro-phenyl ester]",0.2 nM
2,"CN(C(=O)Oc1ccc(F)cc1)[C@@H]1CN(C(=O)C2CCN(c3ccc(Cl)nn3)CC2)C[C@H]1c1ccc(Cl)cc1 [Example 110, {(3S,4R)-4-(4-Chloro-phenyl)-1-[1-(6-chloro-pyridazin-3-yl)-piperidine-4-carbonyl]-pyrrolidin-3-yl}-methyl-carbamic acid 4-fluoro-phenyl ester]",0.3 nM
3,"CN(C(=O)Oc1ccc(F)cc1)[C@@H]1CN(C(=O)C2CCN(C3CCOCC3)CC2)C[C@H]1c1ccc(Cl)cc1 [Example 112, {(3S,4R)-4-(4-Chloro-phenyl)-1-[1-(tetrahydro-pyran-4-yl)-piperidine-4-carbonyl]-pyrrolidin-3-yl}-methyl-carbamic acid 4-fluoro-phenyl ester]",3.7 nM
4,"CN(C(=O)Oc1ccc(F)c(Br)c1)[C@@H]1CN(C(=O)C2CCN(C(=O)C3(C)CC3)CC2)C[C@H]1c1ccc(Cl)c(Cl)c1 [Example 113, {(3S,4R)-4-(3,4-Dichloro-phenyl)-1-[1-(1-methyl-cyclopropanecarbonyl)-piperidine-4-carbonyl]-pyrrolidin-3-yl}-methyl-carbamic acid 3-bromo-4-fluoro-phenyl ester]",0.3 nM
5,"CN(C(=O)Oc1ccc(F)cc1)[C@@H]1CN(C(=O)CCN2CCOCC2)C[C@H]1c1ccc(Cl)cc1 [Example 114, [(3S,4R)-4-(4-Chloro-phenyl)-1-(3-morpholin-4-yl-propionyl)-pyrrolidin-3-yl]-methyl-carbamic acid 4-fluoro-phenyl ester]",83 nM
6,"CN(C(=O)Oc1ccc(F)cc1)[C@@H]1CN(C(=O)C2CCN(C3CCS(=O)(=O)C3)CC2)C[C@H]1c1ccc(Cl)cc1 (stereo partly drawn) [Example 115, {(3S,4R)-4-(4-Chloro-phenyl)-1-[1-(1,1-dioxo-tetrahydro-1λ^6-thiophen-3-yl)-piperidine-4-carbonyl]-pyrrolidin-3-yl}-methyl-carbamic acid 4-fluoro-phenyl ester]",1.3 nM
7,"CN(C(=O)Oc1ccc(F)cc1)[C@@H]1CN(C(=O)C2CCC(CO)CC2)C[C@H]1c1ccc(Cl)cc1 (stereo partly drawn) [Example 116, [(3S,4R)-4-(4-Chloro-phenyl)-1-(4-hydroxymethyl-cyclohexanecarbonyl)-pyrrolidin-3-yl]-methyl-carbamic acid 4-fluoro-phenyl ester]",10 nM
8,"CN(C(=O)Oc1ccc(F)cc1)[C@@H]1CN(C(=O)C2CCC(F)(F)CC2)C[C@H]1c1ccc(Cl)cc1 [Example 117, [(3S,4R)-4-(4-Chloro-phenyl)-1-(4,4-difluoro-cyclohexanecarbonyl)-pyrrolidin-3-yl]-methyl-carbamic acid 4-fluoro-phenyl ester]",17.4 nM
9,"Cc1ccc(N2CCC(C(=O)N3C[C@@H](N(C)C(=O)Oc4ccc(F)cc4)[C@H](c4ccc(Cl)cc4)C3)CC2)nn1 [Example 118, {(3S,4R)-4-(4-Chloro-phenyl)-1-[1-(6-methyl-pyridazin-3-yl)-piperidine-4-carbonyl]-pyrrolidin-3-yl}-methyl-carbamic acid 4-fluoro-phenyl ester]",0.3 nM
10,"CN(C(=O)Oc1ccc(F)cc1)[C@H]1CN(C(=O)C2CCN(c3ccc(C#N)cn3)CC2)C[C@@H]1c1ccc(Cl)cc1 [Example 122, [(3R,4S)-4-(4-Chloro-phenyl)-1-(5′-cyano-3,4,5,6-tetrahydro-2H-[1,2′]bipyridinyl-4-carbonyl)-pyrrolidin-3-yl]-methyl-carbamic acid 4-fluoro-phenyl ester]",19 nM
11,"CN(C(=O)OCCCC(F)(F)F)[C@@H]1CN(C(=O)C2CCN(c3ccc(C#N)cn3)CC2)C[C@H]1c1ccc(Cl)cc1 [Example 127, [(3S,4R)-4-(4-Chloro-phenyl)-1-(5′-cyano-3,4,5,6-tetrahydro-2H-[1,2′]bipyridinyl-4-carbonyl)-pyrrolidin-3-yl]-methyl-carbamic acid 4,4,4-trifluoro-butyl ester]",4 nM
12,"CN(C(=O)OCCCC(F)(F)F)[C@H]1CN(C(=O)C2CCN(c3ccc(C#N)cn3)CC2)C[C@@H]1c1ccc(Cl)cc1 [Example 128, [(3R,4S)-4-(4-Chloro-phenyl)-1-(5′-cyano-3,4,5,6-tetrahydro-2H-[1,2′]bipyridinyl-4-carbonyl)-pyrrolidin-3-yl]-methyl-carbamic acid 4,4,4-trifluoro-butyl ester]",68 nM
13,"CN(C(=O)Oc1ccc(F)cc1)[C@@H]1CN(C(=O)C2CCN(C(=O)C3(C)CC3)CC2)C[C@H]1c1ccc(F)cc1 [Example 129, {(3S,4R)-4-(4-Fluoro-phenyl)-1-[1-(1-methyl-cyclopropanecarbonyl)-piperidine-4-carbonyl]-pyrrolidin-3-yl}-methyl-carbamic acid 4-fluoro-phenyl ester]",13.7 nM
14,"CN(C(=O)Oc1ccc(F)cc1)[C@@H]1CN(C(=O)C2CCN(c3ccc(C#N)cn3)CC2)C[C@H]1c1ccc(F)cc1 [Example 131, [(3S,4R)-1-(5′-Cyano-3,4,5,6-tetrahydro-2H-[1,2′]bipyridinyl-4-carbonyl)-4-(4-fluoro-phenyl)-pyrrolidin-3-yl]-methyl-carbamic acid 4-fluoro-phenyl ester]",1 nM

# Same assay, conditions: hNK-3 receptor affinity; membranes from HEK293 cells transiently expressing recombinant human NK3 receptor; [3H]SR142801; Cheng-Prussoff; read-out: Data Ki
row,SMILES,Ki
1,"CN(C(=O)O[C@H]1CC[C@@H](C(F)(F)F)CC1)[C@H]1CN(C(=O)C2CCN(C(=O)C3(C)CC3)CC2)C[C@@H]1c1ccc(Cl)c(Cl)c1 [Example 107, {(3R,4S)-4-(3,4-Dichloro-phenyl)-1-[1-(1-methyl-cyclopropanecarbonyl)-piperidine-4-carbonyl]-pyrrolidin-3-yl}-methyl-carbamic acid 4-trifluoromethyl-cyclohexyl ester]",58.6 nM
2,"CN(C(=O)O[C@H]1CC[C@@H](C(F)(F)F)CC1)[C@@H]1CN(C(=O)C2CCN(C(=O)C3(C)CC3)CC2)C[C@H]1c1ccc(Cl)c(Cl)c1 [Example 108, {(3S,4R)-4-(3,4-Dichloro-phenyl)-1-[1-(1-methyl-cyclopropanecarbonyl)-piperidine-4-carbonyl]-pyrrolidin-3-yl}-methyl-carbamic acid 4-trifluoromethyl-cyclohexyl ester]",0.7 nM
3,"CN(C(=O)O[C@H]1CC[C@H](C(F)(F)F)CC1)[C@H]1CN(C(=O)C2CCN(c3ccc(C#N)cn3)CC2)C[C@@H]1c1ccc(Cl)cc1 [Example 125, [(3R,4S)-4-(4-Chloro-phenyl)-1-(5′-cyano-3,4,5,6-tetrahydro-2H-[1,2′]bipyridinyl-4-carbonyl)-pyrrolidin-3-yl]-methyl-carbamic acid 4-trifluoromethyl-cyclohexyl ester]",50.9 nM
4,"CN(C(=O)O[C@H]1CC[C@H](C(F)(F)F)CC1)[C@@H]1CN(C(=O)C2CCN(c3ccc(C#N)cn3)CC2)C[C@H]1c1ccc(Cl)cc1 [Example 126, [(3S,4R)-4-(4-Chloro-phenyl)-1-(5′-cyano-3,4,5,6-tetrahydro-2H-[1,2′]bipyridinyl-4-carbonyl)-pyrrolidin-3-yl]-methyl-carbamic acid 4-trifluoromethyl-cyclohexyl ester]",1.2 nM
